# Test results from ChEMBL document CHEMBL1201862, “PubChem BioAssay data set” (2004).
# Calls of active or inactive are those of the source.
# Legend:
# [1] = cytotoxicity in HEK-293T cells, dose response, cytotoxicity control for BCR NF-kB inhibitor project, luminescence, B-cell screen hits (AID 489021); format: functional, cell-based;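 also: HEK-293T cells carrying an NF-kB luciferase reporter; cells exposed to compound for about 14 hours before viability readout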
# BJ [2] = test: cytotoxicity toward BJ-TERT fibroblasts, dose response, cell-based, RAS-independent, luminescence (AID 1933); format: functional; conditions: Homo sapiens
# BJ [3] = test: cells; format: functional, cell-based; conditions: Homo sapiens
# BJ [4] = test: cytotoxicity toward BJ-TERT-LT-ST fibroblasts, dose response, cell-based, RAS-independent, luminescence (AID 1935); format: functional; conditions: Homo sapiens;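 also: BJ fibroblasts immortalized with TERT plus LT and ST oncogenes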
# [5] = cytotoxicity toward DRD oncogenic fibroblasts, dose response, cell-based, non-viral oncogenic, luminescence (AID 1934); format: functional; conditions: Homo sapiens
# [6] = A549 cell cytotoxicity, dose response, cytotoxicity control, plate reader, cherry-pick, antagonist series (AID 743412); format: functional, cell-based
# [7] = HepG2 cell cytotoxicity, dose response, cytotoxicity control, plate reader, cherry-pick, antagonist series (AID 743416); format: functional, cell-based
# [8] = HEK293 cell cytotoxicity, dose response, cytotoxicity control, plate reader, cherry-picked samples (AID 743446); format: functional, cell-based
# Leucine aminopeptidase = molecular target: T1, Leucine aminopeptidase (Plasmodium falciparum 3D7, UniProt Q8IL11); test: P. falciparum M17LAP inhibitors, primary screen, biochemical, fluorogenic H-Leu-NHMec substrate, 1536-well (AID 1619); format: functional
# T1 sequence (Q8IL11 whole entry): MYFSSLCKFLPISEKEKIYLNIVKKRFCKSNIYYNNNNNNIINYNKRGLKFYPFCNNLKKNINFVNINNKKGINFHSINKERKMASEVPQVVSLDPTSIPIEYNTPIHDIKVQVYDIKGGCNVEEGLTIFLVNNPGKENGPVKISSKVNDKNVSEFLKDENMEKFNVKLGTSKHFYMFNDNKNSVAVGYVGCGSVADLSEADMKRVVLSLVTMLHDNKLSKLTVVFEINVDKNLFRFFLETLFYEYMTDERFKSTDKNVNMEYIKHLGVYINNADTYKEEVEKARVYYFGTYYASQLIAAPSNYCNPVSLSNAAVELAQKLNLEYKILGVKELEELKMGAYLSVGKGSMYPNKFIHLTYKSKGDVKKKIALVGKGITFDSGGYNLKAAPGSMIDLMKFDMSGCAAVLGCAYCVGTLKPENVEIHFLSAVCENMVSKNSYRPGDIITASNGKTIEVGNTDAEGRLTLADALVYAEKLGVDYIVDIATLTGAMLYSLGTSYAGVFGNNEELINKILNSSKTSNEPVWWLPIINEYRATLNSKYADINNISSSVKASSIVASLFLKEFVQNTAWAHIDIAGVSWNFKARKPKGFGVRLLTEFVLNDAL
# [9] = THP-1 cell cytotoxicity, dose response, cytotoxicity control for Vif-APOBEC3G degradation inhibitor project, THP-1 cells (AID 1117359); format: functional; conditions: Human immunodeficiency virus 1, THP-1
# [10] = inhibitors of firefly luciferase expression or activity, dose response, H4 neuroglioma cells, luminescence (AID 1990); format: functional, cell-based
# [11] = Luminescence Cell-Based Dose Response HTS to Identify Inhibitors of 5'UTR Stem-Loop Driven Prion Protein mRNA Translation in H4 Neuroglioblastoma Cells. [Related pubchem assays: 1827 (Project Summary), 1813 (Primary HTS)]; format: functional
# [12] = inhibitors of SNCA 5'UTR-driven reporter translation, confirmation, H4 neuroglioma cells, luminescence (AID 1988); format: functional, cell-based
# [13] = molecular target: T2, Microphthalmia-associated transcription factor (Homo sapiens, UniProt O75030); test: TRPM1 promoter luciferase signal decrease, dose response, MITF inhibitor project, cell-based, SK-MEL-5, cherry-picked, set 3 (AID 493073); format: functional
# T2 sequence (O75030 whole entry): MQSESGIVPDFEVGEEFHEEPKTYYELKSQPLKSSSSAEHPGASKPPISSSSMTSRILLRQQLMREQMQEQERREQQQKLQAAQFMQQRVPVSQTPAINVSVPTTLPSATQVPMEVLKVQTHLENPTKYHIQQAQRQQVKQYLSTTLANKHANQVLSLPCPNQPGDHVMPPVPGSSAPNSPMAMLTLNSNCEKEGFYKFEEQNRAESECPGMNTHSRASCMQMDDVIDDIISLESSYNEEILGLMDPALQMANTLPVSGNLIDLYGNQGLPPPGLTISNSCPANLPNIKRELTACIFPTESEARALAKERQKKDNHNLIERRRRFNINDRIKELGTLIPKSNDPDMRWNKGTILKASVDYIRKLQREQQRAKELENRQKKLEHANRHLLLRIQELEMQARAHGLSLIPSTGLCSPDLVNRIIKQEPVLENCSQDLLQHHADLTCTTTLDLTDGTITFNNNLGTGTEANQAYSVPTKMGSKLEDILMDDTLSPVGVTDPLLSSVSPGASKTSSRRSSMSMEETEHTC
# [14] = growth suppression of PTEN-null colon cells, dose response, cell-based, HCT116 PTEN knockout (AID 1047); format: functional;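 also: HCT116 colon tumor cells with PTEN knocked out; cells exposed to compound for 60 hours before readout; potency for loss of cell viability measured by luminescence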
# [15] = growth suppression of beta-catenin-knockout colon cells, dose response, cell-based, HCT116, human colon tumor (AID 1045); format: functional;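 also: HCT116 colon tumor cells with beta catenin knocked out; cells exposed to compound for 60 hours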
# Streptokinase A = molecular target: T3, Streptokinase A (Streptococcus pyogenes serotype M1, UniProt P10520); test: S. pyogenes streptokinase expression inhibitors, potency, dose response, plasminogen activation absorbance, OD405 (AID 1914); format: functional, Streptococcus pyogenes M1 GAS;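 also: secreted streptokinase activity via plasminogen activation per viability signal from cell pellet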
# T3 sequence (P10520 whole entry): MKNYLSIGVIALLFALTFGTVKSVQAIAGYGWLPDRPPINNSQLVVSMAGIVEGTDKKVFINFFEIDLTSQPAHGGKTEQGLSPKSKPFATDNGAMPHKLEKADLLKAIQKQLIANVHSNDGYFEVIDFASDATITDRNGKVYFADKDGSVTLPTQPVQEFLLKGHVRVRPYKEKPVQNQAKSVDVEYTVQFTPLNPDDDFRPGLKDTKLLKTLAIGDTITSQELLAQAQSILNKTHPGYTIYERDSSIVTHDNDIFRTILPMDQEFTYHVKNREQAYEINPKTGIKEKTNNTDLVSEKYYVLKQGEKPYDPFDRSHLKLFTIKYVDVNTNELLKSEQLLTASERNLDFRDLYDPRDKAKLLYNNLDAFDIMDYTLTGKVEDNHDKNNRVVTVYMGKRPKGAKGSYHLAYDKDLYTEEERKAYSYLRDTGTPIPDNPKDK
# [16] = molecular target: T4, Corticotropin-releasing factor receptor 2/Corticotropin-releasing factor-binding protein (Homo sapiens, UniProt P24387+Q13324); test: Dose Response confirmation of uHTS hits for small molecule antagonists of the CRF-binding protein and CRF-R2 receptor complex.; format: functional; conditions: read-out: IC50_Mean
# T4 sequence (Q13324 whole entry): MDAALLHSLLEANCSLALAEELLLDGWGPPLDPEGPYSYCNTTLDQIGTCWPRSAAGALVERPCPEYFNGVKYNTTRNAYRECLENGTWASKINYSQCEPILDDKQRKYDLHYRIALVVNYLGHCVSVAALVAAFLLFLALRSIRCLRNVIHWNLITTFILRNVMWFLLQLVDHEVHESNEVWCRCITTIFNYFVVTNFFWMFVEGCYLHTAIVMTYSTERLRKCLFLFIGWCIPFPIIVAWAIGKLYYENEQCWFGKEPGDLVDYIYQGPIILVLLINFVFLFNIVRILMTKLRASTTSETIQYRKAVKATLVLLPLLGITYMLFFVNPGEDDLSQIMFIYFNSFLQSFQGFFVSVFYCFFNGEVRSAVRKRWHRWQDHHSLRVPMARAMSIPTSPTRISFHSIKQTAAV
# T4 sequence (P24387 whole entry): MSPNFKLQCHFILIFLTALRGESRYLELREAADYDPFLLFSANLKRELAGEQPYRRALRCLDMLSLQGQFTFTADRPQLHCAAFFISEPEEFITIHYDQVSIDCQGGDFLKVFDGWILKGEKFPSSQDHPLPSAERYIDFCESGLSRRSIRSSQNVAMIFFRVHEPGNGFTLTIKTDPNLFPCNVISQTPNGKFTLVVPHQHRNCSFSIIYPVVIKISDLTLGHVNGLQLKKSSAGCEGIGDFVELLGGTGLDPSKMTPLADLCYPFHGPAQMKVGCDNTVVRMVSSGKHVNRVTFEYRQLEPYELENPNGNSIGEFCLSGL
# [17] = molecular target: T4, Corticotropin-releasing factor receptor 2/Corticotropin-releasing factor-binding protein; test: activators of CRF receptor 2 with binding protein – uHTS hits, confirmation (AID 602473); format: functional; conditions: read-out: EC50_Mean
# [18] = HEp-2 cell cytotoxicity, dose response, cytotoxicity control for RSV inhibitor project, HTS (AID 2410); format: functional; conditions: human respiratory syncytial virus
# [19] = tested on: Streptococcus sp. 'group A'; test: growth inhibition of control SK(-) GAS strain, dose response, counter-screen for streptokinase expression inhibitor project, luminescence, kanamycin, BacTiterGlo, confirmation (AID 1900); format: functional, organism-based
# [20] = inhibitors of intracellular T. cruzi replication, confirmation, NIH3T3 host cells, beta-gal luminescence (AID 2044); format: functional, cell-based;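 also: intracellular parasites grown in NIH/3T3 mouse fibroblasts as host cells; luminescent beta-galactosidase reporter signal from transgenic T. cruzi replicating inside host cells; inhibitors lower the luminescence signal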
# [21] = cytotoxicity toward NIH3T3 fibroblasts, dose response, counter-screen, cell-based, ATP luminescence, mouse fibroblasts (AID 2010); format: functional;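 also: cells exposed to compound for about 90 hours before reading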
# Streptococcus = test: Group A Streptococcus viability loss, dose response, counter-screen for streptokinase expression inhibitor project, luminescence, BacTiterGlo (AID 1915); format: functional, organism-based;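 also: potency for reduction of bacterial viability or growth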
# [22] = microbe, parasite or virus in culture; format: functional; conditions: Mycobacterium tuberculosis
# [23] = molecular target: T5, Polyadenylate-binding protein 1 (Homo sapiens, UniProt P11940); test: PABP1 MLLE–PAM2 interaction inhibitors, dose response, miRNA deadenylation inhibitor project, biochemical, fluorescence polarization, Cy5-PAM2 peptide, secondary (AID 602260); format: functional; conditions: read-out: IC50_Mean
# [24] = molecular target: T5, Polyadenylate-binding protein 1; test: PABP1 MLLE–PAM2 binding inhibitor potency, dose response, biochemical, fluorescence polarization, FITC-PAM2 peptide (AID 602259); format: functional; conditions: read-out: IC50_Mean
# T5 sequence (P11940 whole entry): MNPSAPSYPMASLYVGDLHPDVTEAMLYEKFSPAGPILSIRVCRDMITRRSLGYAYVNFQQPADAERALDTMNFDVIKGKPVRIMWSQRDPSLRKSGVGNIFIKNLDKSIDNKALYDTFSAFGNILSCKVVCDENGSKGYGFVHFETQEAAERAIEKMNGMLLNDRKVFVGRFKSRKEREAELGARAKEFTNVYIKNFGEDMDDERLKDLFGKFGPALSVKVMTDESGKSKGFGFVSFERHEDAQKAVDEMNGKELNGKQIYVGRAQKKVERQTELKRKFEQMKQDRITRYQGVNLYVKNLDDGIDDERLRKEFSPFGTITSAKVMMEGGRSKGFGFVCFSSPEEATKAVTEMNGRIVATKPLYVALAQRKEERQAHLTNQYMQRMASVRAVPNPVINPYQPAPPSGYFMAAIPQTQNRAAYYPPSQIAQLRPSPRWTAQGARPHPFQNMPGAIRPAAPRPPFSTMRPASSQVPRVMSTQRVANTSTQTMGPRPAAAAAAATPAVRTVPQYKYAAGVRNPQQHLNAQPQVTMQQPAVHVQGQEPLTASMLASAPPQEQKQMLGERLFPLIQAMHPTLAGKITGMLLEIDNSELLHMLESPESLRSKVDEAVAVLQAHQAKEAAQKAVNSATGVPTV
structure (smiles),measurement,setting,value
Cc1nc2cc(-c3ccc(Cl)cc3)nn2c(C)c1CCC(=O)NCc1ccco1,IC50,[1],> 80 µM (inactive)
CC(C)N(C(=O)COC(=O)c1ccccc1C(=O)c1ccc(Cl)c([N+](=O)[O-])c1)C(C)C,EC50,BJ [2],15.1 µM (active)
same,EC50,BJ [3],> 150 µM (not active)
same,EC50,BJ [4],> 75 µM (inconclusive)
same,EC50,[5],> 150 µM (not active)
same,AC50,[6],34.2 µM (active)
same,AC50,[7],> 52 µM (inactive)
same,AC50,[8],> 52 µM (inactive)
CC1=NNC(=O)C1CCC(=O)N/N=C/C=C/c1ccccc1 (centres undefined),IC50,Leucine aminopeptidase,51.4 µM (active)
O=C(NC(Cc1ccccc1)c1nc2ccccc2[nH]1)c1cccc([N+](=O)[O-])c1 (centres undefined),CC50,[9],> 40 µM (active)
O=C(CCCN1C(=O)S/C(=C\c2ccccc2)C1=O)NNC(=O)c1ccccc1O,EC50,[10],< 0.1 µM (active)
same,EC50,[11],15.2 µM (active)
same,EC50,[12],0.157 µM (active)
same,AC50,[13],33.9 µM (active)
same,IC50,[1],> 80 µM (inactive)
CSCCC(NS(=O)(=O)c1ccc2nc(O)c(O)nc2c1)C(=O)O (centres undefined),IC50,Leucine aminopeptidase,6.94 µM (active)
CCC(CO)Oc1cc(NCc2ccccc2O)c2ncn(C(C)C)c2c1 (centres undefined),IC50,[1],> 80 µM (inactive)
Clc1ccc(OCCCNCc2ccccc2)c(Br)c1,EC50,[14],23.1 µM (active)
same,EC50,[15],17.4 µM (active)
CC(C)OCCCNC(=O)c1c(N)n(/N=C/c2ccccn2)c2nc3ccccc3nc12,IC50,[1],> 80 µM (inactive)
Oc1[nH]c2ccccc2c1N=Nc1nc(Nc2ccccc2)nc(N2CCOCC2)n1,IC50,[1],50.1 µM (inactive)
Cc1cc(=O)[nH]c(SCC(=O)Nc2ccc(Br)cc2)c1C#N,IC50,Leucine aminopeptidase,1.48 µM (active)
same,EC50,Streptokinase A,> 150 µM (not active)
same,IC50,[16],2.16 µM (active)
same,EC50,[17],8.83 µM (active)
Cn1c(=O)n(CCc2ccccc2)c(=O)c2c1ncn2Cc1ccccc1,EC50,[14],47.7 µM (active)
same,EC50,[15],97.4 µM (active)
Cc1ccccc1NC(=O)C1CCCN1S(=O)(=O)c1cccc2cccnc12 (centres undefined),CC50,[18],> 50 µM (active)
same,IC50,cells,19.5 µM (active)
COc1ccc2cnn(CCOc3cc(C)ccc3C(C)C)c(=O)c2c1OC,CC50,[9],> 40 µM (active)
Cc1cc(/C=C(\C#N)C(=O)NCc2ccco2)c(C)n1-c1ccc(C(=O)O)cc1,IC50,Leucine aminopeptidase,41.1 µM (active)
Cc1cccc(N2CCN(C(=O)c3ccccc3NC(=O)C3CC=CCC3C(=O)O)CC2)c1 (centres undefined),IC50,Leucine aminopeptidase,19.1 µM (active)
CCOc1cccc2sc(Nc3nc4ccc(NC(C)=O)cc4s3)nc12,EC50,[19],23.3 µM (active)
same,EC50,Streptokinase A,> 150 µM (not active)
same,EC50,[20],2.44 µM (active)
same,EC50,[21],> 60 µM (not active)
same,EC50,Streptococcus,> 150 µM (not active)
same,AC50,[6],9.66 µM (active)
same,AC50,[7],5.46 µM (active)
same,AC50,[8],24.5 µM (active)
O=C(c1ccc(Br)o1)N1CCN(c2ccc3nnc(-c4ccccc4)n3n2)CC1,IC50,cells,48.6 µM (active)
O=C(/C=C/c1ccccc1)Nc1sc2c(c1C(=O)O)CCC2,CC50,[18],19.7 µM (active)
same,IC50,cells,26.1 µM (active)
CC(=O)c1cccc(NC(S)=NCCC2=CCCCC2)c1,EC50,[14],34 µM (active)
same,EC50,[15],22.6 µM (active)
O=C(c1cccc(N2C(=O)C3C4C=CC(C4)C3C2=O)c1)N1CCN(c2ccccc2Cl)CC1 (centres undefined),CC50,[18],> 50 µM (active)
same,IC50,cells,32.6 µM (active)
CCCCCC(=O)NNC(=S)NC(=O)c1ccc([N+](=O)[O-])cc1,IC50,Leucine aminopeptidase,49.2 µM (active)
same,CC50,[22],> 40 µM (active)
same,IC50,[23],> 66 µM (inactive)
same,IC50,[24],> 66 µM (inactive)
O=C(Nc1ccc(F)cc1F)NC1CCN(S(=O)(=O)c2ccc(F)cc2)CC1,CC50,[9],> 40 µM (active)
O=C(O)c1cccc(COc2cccc3ccccc23)c1,CC50,[18],31.1 µM (active)
same,IC50,cells,28.2 µM (active)
